The values that follow come from US20150141381A1, “TETRACYCLINE COMPOUNDS HAVING TARGET THERAPEUTIC ACTIVITIES” (Paratek Pharmaceuticals, Inc., priority 2001, published 2015).

The structures appear in SMILES notation. Read-outs that look alike come from different tables or passages of the source.

In experiment [1] the test system is S. aureus RN450. Description: In Vitro Anti-Bacterial Activity Assay (MIC), gram positive. It is filed as cell-based. As to conditions: Staphylococcus aureus, RN450, 18 h.
For experiment [2], the system named is E. coli mL308 225. The experiment is described as follows: In Vitro Anti-Bacterial Activity Assay (MIC), gram negative. Format: cell-based. As to conditions: Escherichia coli, ML308225, 18 h.
[3] abbreviates: MIC class, Table 3, read-out: Antibiotic Activity Gram +.
The mark [4] stands for this setting: MIC class, Table 3, read-out: Antibiotic Activity Gram −.
The mark [5] stands for this setting: MIC class, Table 3 (Continued), read-out: Gram+ activity.
The mark [6] stands for this setting: MIC class, Table 3 (Continued), read-out: Gram− activity.
The mark [7] stands for this setting: gram positive bacteria, read-out: Antibiotic Activity Gram + (MIC).
Where [8] appears, read: gram negative bacteria, read-out: Antibiotic Activity Gram − (MIC).

For the molecule `CN(C)[C@@H]1C(O)=C(C(N)=O)C(=O)[C@@]2(O)C(O)=C3C(=O)c4c(O)cccc4/C(=C\c4ccc(C(F)(F)F)cc4)[C@H]3[C@H](O)[C@@H]12` [AC], the figures for the MIC in experiment [1] (setting [3]) and in experiment [2] (setting [4]) were less than 4 µg/mL and more than 4 µg/mL, respectively.
As for `CN(C)[C@H]1C(O)=C(C(N)=O)C(=O)[C@@]2(O)C(O)=C3C(=O)c4c(O)ccc(-c5ccc(NC(=O)C(C)(C)C)cc5)c4C[C@H]3C[C@@H]12` [GT], the MIC is less than 4 µg/mL in experiment [1] (setting [3]) and more than 4 µg/mL in experiment [2] (setting [4]).
The like results for `CN(C)C(=O)/C=C/c1ccc(O)c2c1C[C@H]1C[C@H]3[C@H](N(C)C)C(O)=C(C(N)=O)C(=O)[C@@]3(O)C(O)=C1C2=O` [AQ] were, in that order, less than 4 µg/mL and less than 4 µg/mL.
Consider `CN(C)[C@@H]1C(O)=C(C(N)=O)C(=O)[C@@]2(O)C(O)=C3C(=O)c4c(O)ccc(-c5ccc(Cl)o5)c4C[C@H]3C[C@@H]12`, for which the MIC in experiment [1] (setting [5]) and in experiment [2] (setting [6]) was less than 4 µg/mL each time.
With `CN(C)c1cc(-c2ccc(Cl)cc2)c(O)c2c1C[C@H]1C[C@H]3[C@H](N(C)C)C(O)=C(C(N)=O)C(=O)[C@@]3(O)C(O)=C1C2=O` [AF], the figures for the MIC in experiment [1] (setting [3]) and in experiment [2] (setting [4]) were less than 4 µg/mL and more than 4 µg/mL, respectively.
With `CN(C)[C@@H]1C(O)=C(C(N)=O)C(=O)[C@@]2(O)C(O)=C3C(=O)c4c(O)ccc(CNCc5cccn5C)c4C[C@H]3C[C@@H]12` [KG], the MIC in experiment [1] (setting [3]) and in experiment [2] (setting [4]) was less than 4 µg/mL each time.
As for `CC1c2cccc(O)c2C(=O)C2=C(O)[C@]3(O)C(=O)C(C(N)=O)=C(O)[C@@H](N(C)C)[C@@H]3[C@@H](OC(=O)C3CCCCC3)[C@@H]21` (some centres unmarked), the MIC in experiment [1] (setting [5]) and in experiment [2] (setting [6]) was less than 4 µg/mL in each case.
`CCOC(=O)c1csc(NCc2cc(N(C)C)c3c(c2O)C(=O)C2=C(O)[C@]4(O)C(=O)C(C(N)=O)=C(O)C(N(C)C)[C@@H]4C[C@@H]2C3)n1` (some centres unmarked) [MT]: the MIC in experiment [1] (setting [3]) and in experiment [2] (setting [4]) was more than 4 µg/mL throughout.
Regarding `CCOC(=O)C(NCc1ccc(OC)c(-c2ccc(O)c3c2C[C@H]2C[C@H]4[C@H](N(C)C)C(O)=C(C(N)=O)C(=O)[C@@]4(O)C(O)=C2C3=O)c1)C(C)C` (some centres unmarked) [FX], the MIC in experiment [1] (setting [3]) is less than 4 µg/mL; in experiment [2] (setting [4]), more than 4 µg/mL.
For `CC(C)Cc1cc(N(C)C)c2c(c1O)C(=O)C1=C(O)[C@]3(O)C(=O)C(C(N)=O)=C(O)[C@@H](N(C)C)[C@@H]3C[C@@H]1C2`, the MIC in experiment [1] (setting [7]) and in experiment [2] (setting [8]) was less than 4 µg/mL in each case.
As to `Cc1cnc(N)n1Cc1cc(N(C)C)c2c(c1O)C(=O)C1=C(O)[C@]3(O)C(=O)C(C(N)=O)=C(O)[C@@H](N(C)C)[C@@H]3C[C@@H]1C2` [drawing 3711], the MIC was less than 4 µg/mL in experiment [1] (setting [7]) and more than 4 µg/mL in experiment [2] (setting [8]).
As for `CN(C)[C@@H]1C(O)=C(C(N)=O)C(=O)[C@@]2(O)C(O)=C3C(=O)c4c(O)ccc(-c5ccc(NC(=O)OCCF)cc5)c4C[C@H]3C[C@@H]12`, the values for the MIC in experiment [1] (setting [7]) and in experiment [2] (setting [8]) were less than 4 µg/mL and more than 4 µg/mL, respectively.
Consider `CN(C)c1cc(CC2=COc3ccccc3C2)c(O)c2c1C[C@H]1C[C@H]3[C@H](N(C)C)C(O)=C(C(N)=O)C(=O)[C@@]3(O)C(O)=C1C2=O`, for which the MIC in experiment [1] (setting [7]) was less than 4 µg/mL; in experiment [2] (setting [8]), more than 4 µg/mL.
On to `CN(C)[C@@H]1C(O)=C(C(N)=O)C(=O)[C@@]2(O)C(O)=C3C(=O)c4c(O)ccc(-c5cc6ccccc6o5)c4C[C@H]3C[C@@H]12` [drawing 3387], for which the MIC was less than 4 µg/mL in experiment [1] (setting [7]) and more than 4 µg/mL in experiment [2] (setting [8]).
With `CCCCCc1cc(N(C)C)c2c(c1O)C(=O)C1=C(O)[C@]3(O)C(=O)C(C(N)=O)=C(O)[C@@H](N(C)C)[C@@H]3C[C@@H]1C2` [DX], the MIC in experiment [1] (setting [3]) is less than 4 µg/mL; in experiment [2] (setting [4]), more than 4 µg/mL.
Take `CCc1cc(C(C)(C)C)c(O)c2c1C[C@H]1C[C@H]3[C@H](N(C)C)C(O)=C(C(=O)NC(C)(C)C)C(=O)[C@@]3(O)C(O)=C1C2=O`: the values for the MIC in experiment [1] (setting [7]) and in experiment [2] (setting [8]) were less than 4 µg/mL and more than 4 µg/mL, respectively.
Take `C=CCCOC(=O)NCc1cc(N(C)C)c2c(c1O)C(=O)C1=C(O)[C@]3(O)C(=O)C(C(N)=O)=C(O)[C@@H](N(C)C)[C@@H]3C[C@@H]1C2` [EO]: the MIC in experiment [1] (setting [3]) was less than 4 µg/mL; in experiment [2] (setting [4]) it was more than 4 µg/mL.
In the case of `CN(C)C1C(O)=C(C(N)=O)C(=O)[C@@]2(O)C(O)=C3C(=O)c4c(O)ccc(-c5ccc(CN6CCCC6)c6ccccc56)c4C[C@H]3C[C@@H]12` (some centres unmarked) [GH], the MIC in experiment [1] (setting [3]) and in experiment [2] (setting [4]) was less than 4 µg/mL in each case.
`COc1ccc(CNCCN(C)C)cc1-c1ccc(O)c2c1C[C@H]1C[C@H]3[C@H](N(C)C)C(O)=C(C(N)=O)C(=O)[C@@]3(O)C(O)=C1C2=O` [GA]: the values for the MIC in experiment [1] (setting [3]) and in experiment [2] (setting [4]) were less than 4 µg/mL and more than 4 µg/mL, respectively.
As for `CN(C)c1cc(CNC(=O)Oc2ccc(F)cc2)c(O)c2c1C[C@H]1C[C@H]3[C@H](N(C)C)C(O)=C(C(N)=O)C(=O)[C@@]3(O)C(O)=C1C2=O` [FJ], the results for the MIC in experiment [1] (read-out: Antibiotic Activity Gram +) and in experiment [2] (read-out: Antibiotic Activity Gram −) were less than 4 µg/mL and more than 4 µg/mL, respectively.
In the case of `CC(=O)c1ccc(-c2cc(N(C)C)c3c(c2O)C(=O)C2=C(O)[C@]4(O)C(=O)C(C(N)=O)=C(O)[C@@H](N(C)C)[C@@H]4C[C@@H]2C3)cc1`, the MIC was less than 4 µg/mL in experiment [1] (setting [7]) and more than 4 µg/mL in experiment [2] (setting [8]).
Consider `CN(C)[C@@H]1C(O)=C(C(N)=O)C(=O)[C@@]2(O)C(O)=C3C(=O)c4c(O)ccc(C=CC(N)=O)c4C[C@H]3C[C@@H]12` [BO], for which the MIC in experiment [1] (setting [3]) and in experiment [2] (setting [4]) was more than 4 µg/mL in each case.
Turning to `CN(C)[C@@H]1C(O)=C(C(N)=O)C(=O)[C@@]2(O)C(O)=C3C(=O)c4c(O)ccc(-c5ccc(CN6CCOCC6)o5)c4C[C@H]3C[C@@H]12` [HM], the MIC in experiment [1] (setting [3]) and in experiment [2] (setting [4]) was less than 4 µg/mL throughout.
As to `CN(C)[C@@H]1C(O)=C(C(N)=O)C(=O)[C@@]2(O)C(O)=C3C(=O)c4c(O)ccc(C#Cc5ccc(NS(C)(=O)=O)cc5)c4C[C@H]3C[C@@H]12` [BU], the MIC in experiment [1] (setting [3]) was less than 4 µg/mL; in experiment [2] (setting [4]), more than 4 µg/mL.
Consider `CN(C)c1cc(CNCC2CC2)c(O)c2c1C[C@H]1C[C@H]3[C@H](N(C)C)C(O)=C(C(N)=O)C(=O)[C@@]3(O)C(O)=C1C2=O`, for which the MIC was less than 4 µg/mL in experiment [1] (setting [7]) and more than 4 µg/mL in experiment [2] (setting [8]).
With `COc1ccc(CN2CCOCC2)cc1-c1ccc(O)c2c1C[C@H]1C[C@H]3[C@H](N(C)C)C(O)=C(C(N)=O)C(=O)[C@@]3(O)C(O)=C1C2=O` [BV], the results for the MIC in experiment [1] (setting [3]) and in experiment [2] (setting [4]) were less than 4 µg/mL and more than 4 µg/mL, respectively.
Take `Cc1c2c(c(O)c3c(O)cccc13)C(=O)[C@]1(O)C(=O)C(C(N)=O)=C(O)[C@@H](N(C)C)[C@@H]1C2`: the MIC in experiment [1] (setting [5]) and in experiment [2] (setting [6]) was less than 4 µg/mL throughout.
For `CN(C)[C@@H]1C(O)=C(C(N)=O)C(=O)[C@@]2(O)C(O)=C3C(=O)c4c(O)ccc(/C=C/c5ccc(Br)cc5)c4C[C@H]3C[C@@H]12` [BL], the MIC in experiment [1] (setting [3]) is less than 4 µg/mL; in experiment [2] (setting [4]) it was more than 4 µg/mL.
The corresponding values for `COc1cc(C/C=C\c2ccc(O)c3c2C[C@H]2C[C@H]4[C@H](N(C)C)C(O)=C(C(N)=O)C(=O)[C@@]4(O)C(O)=C2C3=O)ccc1O` [BW] are less than 4 µg/mL and more than 4 µg/mL.
Regarding `CN(C)C1C(O)=C(C(N)=O)C(=O)[C@@]2(O)C(O)=C3C(=O)c4c(O)ccc(NS(C)(=O)=O)c4C[C@H]3C[C@@H]12` (some centres unmarked) [JS], the values for the MIC in experiment [1] (setting [3]) and in experiment [2] (setting [4]) were less than 4 µg/mL and more than 4 µg/mL, respectively.
Consider `CN(C)[C@@H]1C(O)=C(C(N)=O)C(=O)[C@@]2(O)C(O)=C3C(=O)c4c(O)ccc(-c5ccncc5Cl)c4C[C@H]3C[C@@H]12`, for which the MIC in experiment [1] (setting [7]) and in experiment [2] (setting [8]) was less than 4 µg/mL in each case.
Regarding `CC1c2ccc(C3(C)CCCC3)c(O)c2C(=O)C2=C(O)[C@]3(O)C(=O)C(C(N)=O)=C(O)[C@@H](N(C)C)[C@@H]3[C@@H](O)[C@@H]21` (some centres unmarked), the MIC in experiment [1] (setting [5]) and in experiment [2] (setting [6]) was less than 4 µg/mL throughout.
Take `CN(C)[C@@H]1C(O)=C(C(N)=O)C(=O)[C@@]2(O)C(O)=C3C(=O)c4c(ccc(CN)c4O)C[C@H]3C[C@@H]12` [AR]: the MIC in experiment [1] (setting [3]) and in experiment [2] (setting [4]) was less than 4 µg/mL in each case.
Turning to `CN(C)[C@@H]1C(O)=C(C(N)=O)C(=O)[C@@]2(O)C(O)=C3C(=O)c4c(O)ccc(-c5ccc(CNC#N)cc5)c4C[C@H]3C[C@@H]12`, the MIC in experiment [1] (setting [7]) and in experiment [2] (setting [8]) was less than 4 µg/mL throughout.
Regarding `CN(C)[C@@H]1C(O)=C(C(N)=O)C(=O)[C@@]2(O)C(O)=C3C(=O)c4c(O)ccc(/C=C/S(C)(C)C)c4C[C@H]3C[C@@H]12`, the MIC in experiment [1] (setting [5]) and in experiment [2] (setting [6]) was less than 4 µg/mL each time.
For `Cc1csc(NCc2cc(N(C)C)c3c(c2O)C(=O)C2=C(O)[C@]4(O)C(=O)C(C(N)=O)=C(O)C(N(C)C)[C@@H]4C[C@@H]2C3)n1` (some centres unmarked) [MS], the MIC in experiment [1] (setting [3]) was less than 4 µg/mL; in experiment [2] (setting [4]), more than 4 µg/mL.
The corresponding values for `CN(C)[C@@H]1C(O)=C(C(N)=O)C(=O)[C@@]2(O)C(O)=C3C(=O)c4c(O)c(C(C)(C)C)cc(C(N)C(=O)O)c4C[C@H]3C[C@@H]12` (some centres unmarked) [FS] are more than 4 µg/mL and more than 4 µg/mL.
Regarding `CN(C)[C@@H]1C(O)=C(C(N)=O)C(=O)[C@@]2(O)C(O)=C3C(=O)c4c(O)ccc(C=C5CCC5)c4C[C@H]3C[C@@H]12`, the MIC in experiment [1] (setting [5]) and in experiment [2] (setting [6]) was less than 4 µg/mL each time.
With `CCc1ccc(O)c2c1C[C@H]1C[C@H]3[C@H](N(C)C)C(O)=C(C(N)=O)C(=O)[C@@]3(O)C(O)=C1C2=O`, the MIC in experiment [1] (setting [5]) and in experiment [2] (setting [6]) was less than 4 µg/mL in each case.
Turning to `CN(C)c1cc(CNCC2CCNCC2)c(O)c2c1C[C@H]1C[C@H]3[C@H](N(C)C)C(O)=C(C(N)=O)C(=O)[C@@]3(O)C(O)=C1C2=O`, the MIC in experiment [1] (setting [7]) and in experiment [2] (setting [8]) was more than 4 µg/mL throughout.
